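Step 1: Grow cells in 96-well plates. Step 2: Expose to compound for 48 hours at 5 concentrations. Step 3: Interpolate endpoints linearly; if unreached, use highest concentration. Definition used: TGI = concentration required for complete inhibition of growth.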

Common to all, as to test: NCI anticancer screen, dose series, 48 h
The test system of experiment [1] is SK-MEL-28 melanoma.
In experiment [2] the test system is UACC-257 melanoma.
Experiment [3] has as its system MDA-N.
Experiment [4] deals with HCC-2998 colon.
Experiment [5] concerns SNB-19 CNS.
Experiment [6] has as its system ACHN renal.
The subject of experiment [7] is SN12C renal.
Experiment [8] concerns SF-268 CNS.
Experiment [9] relates to 786-0 renal.
Experiment [10] deals with A549 NSCLC.
In experiment [11] the test system is SK-MEL-2 melanoma.

On to `COc1ccc(-c2c(C#N)c(N)[nH]c(=S)c2C#N)cc1`, for which the TGI is greater than 100 µM in [1]; greater than 100 µM in [2]; 28.5 µM in experiment [3]; 72.2 µM in [4]; greater than 100 µM in experiment [5]; greater than 100 µM in experiment [6]. For the same compound, the TGI in [7] was 84.3 µM; in experiment [8] it was greater than 100 µM; in experiment [9] it was 47.3 µM; in experiment [10] it was greater than 100 µM; in experiment [11], greater than 100 µM.

`CS(=O)(=O)OCCN(CCOS(C)(=O)=O)c1ccc(C=Nc2ccc(-c3csc(Cc4ccccc4)n3)cc2)c(Cl)c1`: the TGI in [1] is greater than 100 µM; in [2], 17.8 µM; in experiment [3] it was greater than 76.3 µM; in experiment [4], 35.1 µM; in experiment [5], greater than 89.6 µM; in [6], greater than 84 µM. Also, the TGI in experiment [7] was greater than 100 µM; in experiment [8] it was greater than 100 µM; in experiment [9], greater than 68.3 µM; in experiment [10], greater than 83.7 µM; in experiment [11], greater than 67.9 µM.

Regarding `CCCC(=O)OCC1OC(n2cc(F)c(=O)[nH]c2=O)CC1OC(=O)CCC` (configuration not stated), the TGI in experiment [1], in experiment [2], in [3], in experiment [4], in experiment [5] and in experiment [6] was greater than 10 µM in each case. The TGI in experiment [7], in experiment [8], in experiment [9], in experiment [10] and in experiment [11] was greater than 10 µM each time.

On to `COC(=O)c1ccc(OCCn2nnc(C(=O)NN)c2C(=O)NN)cc1`, for which the TGI in [1], in [2], in experiment [3], in experiment [4], in experiment [5] and in [6] was greater than 100 µM in each case. In addition, the TGI in experiment [7], in experiment [9], in experiment [10] and in [11] was greater than 100 µM throughout.

Take `CC(=O)OCC1OC(n2c(C)c(C)cc(C#N)c2=S)C(OC(C)=O)C(OC(C)=O)C1OC(C)=O` (configuration not stated): the TGI in experiment [1], in [2], in [3], in experiment [4], in [5] and in experiment [6] was greater than 100 µM throughout. For the same compound, the TGI in experiment [7], in experiment [8], in experiment [9], in experiment [10] and in [11] was greater than 100 µM in each case.

In the case of `CC(C#N)(NO)C(C)(C#N)NO` (configuration not stated), the TGI in experiment [1], in experiment [2], in experiment [3], in experiment [4], in experiment [5] and in experiment [7] was greater than 100 µM in each case. Further, the TGI in experiment [8], in experiment [9], in [10] and in experiment [11] was greater than 100 µM each time.

Consider `CC(=O)C1=C(C)N(c2ccccc2)C2(O)C3=C(C(=O)c4ccccc4C3=O)C(O)=CC12Cl` (configuration not stated), for which the TGI is 23.6 µM in experiment [1]; 19.3 µM in experiment [2]; 6.88 µM in [3]; 25.9 µM in [4]; 23.5 µM in experiment [5]; 33.2 µM in experiment [6]. The TGI is 24 µM in experiment [7]; 60.6 µM in experiment [8]; greater than 100 µM in [9]; greater than 100 µM in [10]; 22.2 µM in [11].

On to `CCN(CC)Cc1cc(N=Nc2c(O)ccc3c(N=Nc4ccc(O)c(CN(CC)CC)c4)c(O)ccc23)ccc1O`, for which the TGI in experiment [1] came to 20 µM; in experiment [2] it was 16.5 µM; in experiment [3] it was 18 µM; in experiment [4] it was 5.18 µM; in experiment [5], 15.6 µM; in experiment [6], 7.71 µM. Also, the TGI in experiment [7] was 17.6 µM; in experiment [8] it was 33.8 µM; in experiment [9], 3.75 µM; in experiment [10], greater than 23.5 µM; in experiment [11], greater than 51.6 µM.

Take `Cc1cccc2c(=O)c3cccc([C@H](C)C(=O)O)c3oc12`: the TGI in experiment [1], in [2], in experiment [3], in experiment [4], in [5] and in experiment [6] was greater than 100 µM throughout. Also, the TGI in experiment [7], in [8], in [9], in [10] and in experiment [11] was greater than 100 µM each time.

Consider `CC1=C(C)C(=O)OC(C(C)(O)C2(O)CC3OC34C3CC(O)C56OC5C=CC(=O)C6(C)C3CCC42C)C1` (configuration not stated), for which the TGI was 4.24 µM in experiment [1]; 4.7 µM in [2]; 15.5 µM in experiment [3]; 2.73 µM in experiment [4]; 19.9 µM in experiment [5]; 2.45 µM in experiment [6]. In addition, the TGI in [7] turned out to be 14.4 µM; in experiment [8] it was 7.96 µM; in experiment [10], 15.5 µM; in experiment [11] it was 10.8 µM.

Regarding `COc1cc2ncnc(NS(=O)(=O)c3cc4ccccc4s3)c2cc1OC`, the TGI in [2], in experiment [3], in experiment [4], in experiment [5], in experiment [6] and in experiment [7] was greater than 100 µM each time. Moreover, the TGI in experiment [8], in [9], in experiment [10] and in [11] was greater than 100 µM throughout.

`O=C1C=C(NCCc2ccc(O)c([N+](=O)[O-])c2)C(=O)c2[nH]cnc21`: the TGI in [1] is 30.4 µM; in experiment [2], 38.7 µM; in experiment [3], 31.2 µM; in [4], greater than 100 µM; in experiment [5] it was greater than 100 µM; in experiment [6], greater than 100 µM. The TGI in [7] was greater than 100 µM; in [9], greater than 100 µM; in [10], 93.4 µM; in [11], 51.1 µM.

For the origin of these results see PubChem BioAssay (NCI).
